Laboratory results from patent US12318403B2, “2′3′-cyclic dinucleotides and prodrugs thereof” (INSTITUTE OF ORGANIC CHEMISTRY AND BIOCHEMISTRY ASCR, V.V.I., priority 2019, dated 2025).
Where two headings read alike, the source gives them in different places.

Legend:
[1] = test system: peripheral blood mononuclear cell (PBMC); experiment: Peripheral blood mononuclear cell assay; conditions: average of one to four donors
Protocol: Selected compounds were tested in an in vitro peripheral blood mononuclear cell (PBMC) assay. […] Serially diluted tested compounds were added to wells in 50 μl of cultivation medium and cells were incubated with the compounds for 1h at 37° C. with 5% CO2. Plates with cells were then spun 500 g for 5 minutes and the medium was removed. Cells were washed twice with the cell culture medium by the use of centrifugation and gently resuspended in 100 μl medium without compounds. After 15 hour incubation at 37° C. with 5% CO2, the cell culture medium was collected and the levels of interferon-alpha (INF-α), interferon-gamma (INF-γ) and tumor necrosis factor-alpha (TNF-α) were determined with ProcartaPlex Assays (ThermoFisher, Waltham, USA) and MAGPIX System (Merck KGaA, Darmstadt, Germany). […] Values reported are an average of runs from one to four donors.

[2] = biological target: T1, human WT STING (Homo sapiens, UniProt Q86WV6, H232R); experiment: Differential Scanning Fluorimetry with WT STING; type: binding; conditions: thermal shift vs STING apoprotein; 150 μM CDN; truncated WT STING (residues 140-343)
T1 construct: truncated human WT STING or AQ STING (amino acid residues 140-343); 8xHis (N, cleaved yes); SUMO (N, cleaved yes); made in house; host or cells: E. coli Rosetta-gami B (DE3)
T1 sequence (Q86WV6 140-343 H232R): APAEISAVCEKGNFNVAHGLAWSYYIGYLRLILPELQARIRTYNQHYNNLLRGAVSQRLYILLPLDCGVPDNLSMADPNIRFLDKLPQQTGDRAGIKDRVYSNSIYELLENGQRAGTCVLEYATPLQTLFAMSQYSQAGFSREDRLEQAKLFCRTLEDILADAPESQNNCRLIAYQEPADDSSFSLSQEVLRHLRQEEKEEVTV

[3] = biological target: T2, human wild type STING (WT STING) (Homo sapiens, UniProt Q86WV6, H232R); experiment: Digitonin assay using 293T wtSTING-FL reporter cells; type: cell-based; conditions: 293T wtSTING-FL cells; compounds in Digitonin buffer 30 minutes, then 5 hours in medium; ISRE firefly luciferase
T2 sequence (Q86WV6 whole entry H232R): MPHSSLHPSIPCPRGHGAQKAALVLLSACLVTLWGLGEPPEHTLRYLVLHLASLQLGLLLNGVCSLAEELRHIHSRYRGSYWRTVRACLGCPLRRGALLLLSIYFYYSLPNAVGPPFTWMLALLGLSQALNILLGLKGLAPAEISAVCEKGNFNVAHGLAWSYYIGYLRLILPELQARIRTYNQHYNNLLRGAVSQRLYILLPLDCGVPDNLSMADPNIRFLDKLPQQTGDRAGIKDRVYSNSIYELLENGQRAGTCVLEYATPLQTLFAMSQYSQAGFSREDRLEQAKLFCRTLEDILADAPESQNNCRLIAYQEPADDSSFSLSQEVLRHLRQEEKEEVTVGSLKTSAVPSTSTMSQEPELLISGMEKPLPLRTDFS

[4] = biological target: T2, human wild type STING (WT STING); experiment: 293T WT STING standard reporter assay; type: cell-based; conditions: 293T wtSTING-FL cells; standard reporter assay without digitonin; 7 hours; ISRE firefly luciferase; read-out: 293T WT STING EC50
[5] = biological target: T3, AQ human STING (G230A-R293Q) (Homo sapiens, UniProt Q86WV6, G230A/H232R/R293Q); experiment: Differential Scanning Fluorimetry with AQ STING; type: binding; conditions: thermal shift vs STING apoprotein; 150 μM CDN; truncated AQ STING (residues 140-343)
T3 construct: truncated human WT STING or AQ STING (amino acid residues 140-343); 8xHis (N, cleaved yes); SUMO (N, cleaved yes); made in house; host or cells: E. coli Rosetta-gami B (DE3)
T3 sequence (Q86WV6 140-343 G230A/H232R/R293Q): as the sequence (Q86WV6 140-343 H232R) above, with G91A, R154Q counted along it

[6] = PBMC, read-out: PBMC EC50 IFN-α, compounds 1h, washed, 15 hour incubation, interferon-alpha level in medium
[7] = PBMC, read-out: PBMC EC50 TNF-α, compounds 1h, washed, 15 hour incubation, tumor necrosis factor-alpha level in medium
[8] = read-out: PBMC EC50 IFN-γ, compounds 1h, washed, 15 hour incubation, interferon-gamma level in medium
[9] = read-out: PBMC EC50 IFN-α, compounds 1h, washed, 15 hour incubation, interferon-alpha level in medium
[10] = read-out: PBMC EC50 TNF-α, compounds 1h, washed, 15 hour incubation, tumor necrosis factor-alpha level in medium
[11] = PBMC, read-out: PBMC EC50 IFN-γ, compounds 1h, washed, 15 hour incubation, interferon-gamma level in medium

| SMILES | EC50 [1, 6] [nM] | EC50 [1, 7] [nM] | EC50 [1, 8] [nM] | DSF ΔTm WT STING [2] [°C] | EC50 [3] [nM] | EC50 [4] [nM] | DSF ΔTm AQ STING [5] [°C] | EC50 [1, 9] [nM] | EC50 [1, 10] [nM] | EC50 [1, 11] [nM] |
| --- | --- | --- | --- | --- | --- | --- | --- | --- | --- | --- |
| Nc1nc2c(ncn2[C@@H]2O[C@@H]3COP(=O)(O)CO[C@H]4[C@@H](F)[C@H](n5cnc6c(N)ncnc65)O[C@@H]4COP(=O)(S)O[C@@H]2[C@@H]3F)c(=O)[nH]1 (single isomer, unassigned) [Compound 11a] | 286000 | 180000 | 152000 | 17.3 | 30 | 2500 | 23.1 | – | – | – |
| Nc1nc2c(ncn2[C@@H]2O[C@@H]3COP(=O)(O)CO[C@H]4[C@@H](F)[C@H](n5cnc6c(N)ncnc65)O[C@@H]4COP(=O)(S)O[C@@H]2[C@@H]3F)c(=O)[nH]1 (single isomer, unassigned) [Compound 11b] | – | – | 56000 | 22.4 | 10 | 1900 | 29.2 | 227000 | 171000 | – |
| Nc1ncnc2c1ncn2[C@@H]1O[C@@H]2COP(=O)(S)O[C@@H]3[C@H](F)[C@@H](COP(=O)(O)CO[C@H]2[C@H]1F)O[C@H]3n1cnc2c(=O)[nH]cnc21 (single isomer, unassigned) [Compound 13a] | – | – | – | 18.3 | 9 | 1300 | 21.8 | – | – | – |
| Nc1ncnc2c1ncn2[C@@H]1O[C@@H]2COP(=O)(S)O[C@@H]3[C@H](F)[C@@H](COP(=O)(O)CO[C@H]2[C@H]1F)O[C@H]3n1cnc2c(=O)[nH]cnc21 (single isomer, unassigned) [Compound 13b] | 150000 | 65000 | – | 20.9 | 10 | 1100 | 26.0 | – | – | 70000 |
| Nc1nc2c(ncn2[C@@H]2O[C@@H]3COP(=O)(S)CO[C@H]4[C@@H](F)[C@H](n5cnc6c(N)ncnc65)O[C@@H]4COP(=O)(O)O[C@@H]2[C@@H]3F)c(=O)[nH]1 (single isomer, unassigned) [Compound 15a] | – | – | – | 13.8 | 20 | 2300 | 19.7 | – | – | – |
| Nc1nc2c(ncn2[C@@H]2O[C@@H]3COP(=O)(S)CO[C@H]4[C@@H](F)[C@H](n5cnc6c(N)ncnc65)O[C@@H]4COP(=O)(O)O[C@@H]2[C@@H]3F)c(=O)[nH]1 (single isomer, unassigned) [Compound 15b] | – | – | – | 19.4 | – | 4700 | 27.0 | – | – | – |
| Nc1nc2c(ncn2[C@@H]2O[C@@H]3COP(=O)(S)CO[C@H]4[C@@H](F)[C@H](n5cnc6c(N)ncnc65)O[C@@H]4COP(=O)(S)O[C@@H]2[C@@H]3F)c(=O)[nH]1 (single isomer, unassigned) [Compound 17a] | – | – | – | 8.7 | 540 | 10200 | 14.3 | – | – | – |
| Nc1nc2c(ncn2[C@@H]2O[C@@H]3COP(=O)(S)CO[C@H]4[C@@H](F)[C@H](n5cnc6c(N)ncnc65)O[C@@H]4COP(=O)(S)O[C@@H]2[C@@H]3F)c(=O)[nH]1 (single isomer, unassigned) [Compound 17c] | – | – | 42000 | 18.6 | 7 | 140 | 25.4 | 107000 | 84000 | – |
| Nc1ncnc2c1ncn2[C@@H]1O[C@@H]2COP(=O)(S)O[C@@H]3[C@H](F)[C@@H](COP(=O)(S)CO[C@H]2[C@H]1F)O[C@H]3n1cnc2c(N)ncnc21 (single isomer, unassigned) [Compound 30a] | – | – | – | – | 11200 | – | – | – | – | – |
| Nc1ncnc2c1ncn2[C@@H]1O[C@@H]2COP(=O)(S)O[C@@H]3[C@H](F)[C@@H](COP(=O)(S)CO[C@H]2[C@H]1F)O[C@H]3n1cnc2c(N)ncnc21 (single isomer, unassigned) [Compound 30b] | – | – | – | – | 400 | – | – | – | – | – |
| Nc1ncnc2c1ncn2[C@@H]1O[C@@H]2COP(=O)(S)O[C@@H]3[C@H](F)[C@@H](COP(=O)(S)CO[C@H]2[C@H]1F)O[C@H]3n1cnc2c(N)ncnc21 (single isomer, unassigned) [Compound 30c] | – | – | – | – | 600 | – | – | – | – | – |
| CCCCCCCCCCCC(=O)OCOP1(=O)CO[C@H]2[C@@H](F)[C@H](n3cnc4c(N)ncnc43)O[C@@H]2COP(=O)(OCOC(=O)CCCCCCCCCCC)O[C@@H]2[C@H](F)[C@@H](CO1)O[C@H]2n1cnc2c(=O)[nH]cnc21 (single isomer, unassigned) [Compound 79b] | – | – | 10 | – | – | 20 | – | 200 | 200 | – |
| CCCCCCCCCCCC(=O)OCOP1(=O)CO[C@H]2[C@@H](F)[C@H](n3cnc4c(N)ncnc43)O[C@@H]2COP(=O)(OCOC(=O)CCCCCCCCCCC)O[C@@H]2[C@H](F)[C@@H](CO1)O[C@H]2n1cnc2c(=O)[nH]cnc21 (single isomer, unassigned) [Compound 79c] | – | – | 50 | – | – | 3 | – | 100 | 90 | – |
| CC(C)OC(=O)OCOP1(=O)CO[C@H]2[C@@H](F)[C@H](n3cnc4c(N)ncnc43)O[C@@H]2COP(=O)(OCOC(=O)OC(C)C)O[C@@H]2[C@H](F)[C@@H](CO1)O[C@H]2n1cnc2c(N)ncnc21 (single isomer, unassigned) [Compound 80a] | > 5000 | > 5000 | – | – | – | 4200 | – | – | – | > 5000 |
| CC(C)OC(=O)OCOP1(=O)CO[C@H]2[C@@H](F)[C@H](n3cnc4c(N)ncnc43)O[C@@H]2COP(=O)(OCOC(=O)OC(C)C)O[C@@H]2[C@H](F)[C@@H](CO1)O[C@H]2n1cnc2c(N)ncnc21 (single isomer, unassigned) [Compound 80c] | – | – | > 5000 | – | – | 1100 | – | > 5000 | > 5000 | – |
| CC(C)(C)C(=O)OCOP1(=O)CO[C@H]2[C@@H](F)[C@H](n3cnc4c(N)ncnc43)O[C@@H]2COP(=O)(OCOC(=O)C(C)(C)C)O[C@@H]2[C@H](F)[C@@H](CO1)O[C@H]2n1cnc2c(N)ncnc21 (single isomer, unassigned) [Compound 81a] | 1400 | 1600 | – | – | – | 50 | – | – | – | 1700 |
| CC(C)(C)C(=O)OCOP1(=O)CO[C@H]2[C@@H](F)[C@H](n3cnc4c(N)ncnc43)O[C@@H]2COP(=O)(OCOC(=O)C(C)(C)C)O[C@@H]2[C@H](F)[C@@H](CO1)O[C@H]2n1cnc2c(N)ncnc21 (single isomer, unassigned) [Compound 81b] | – | – | 1400 | – | – | 50 | – | 1000 | 1300 | – |
| Nc1nc2c(ncn2[C@@H]2O[C@@H]3COP(=O)(O)O[C@@H]4[C@H](O)[C@@H](COP(=O)(O)O[C@@H]2[C@@H]3O)O[C@H]4n2cnc3c(N)ncnc32)c(=O)[nH]1 [2′2′-cGAMP, reference compound] | – | – | – | – | 30 | 10200 | 19.4 | – | – | – |
| Nc1ncnc2c1ncn2[C@@H]1O[C@@H]2COP(=O)(O)O[C@H]3[C@@H](O)[C@H](n4cnc5c(N)ncnc54)O[C@@H]3COP(=O)(O)O[C@H]2[C@H]1O [3′3′-c-di-AMP, reference compound] | – | – | – | 2.5 | 300 | 202000 | 9.0 | – | – | – |
| Nc1ncnc2c1ncn2[C@@H]1O[C@@H]2COP(=O)(O)O[C@@H]3[C@H](F)[C@@H](COP(=O)(O)CO[C@H]2[C@H]1F)O[C@H]3n1cnc2c(=O)[nH]cnc21 [Compound 22] | 160000 | 90000 | – | – | – | 8100 | – | – | – | 125000 |
| Nc1ncnc2c1ncn2[C@@H]1O[C@@H]2COP(=O)(O)O[C@@H]3[C@H](F)[C@@H](COP(=O)(O)CO[C@H]2[C@H]1F)O[C@H]3n1cnc2c(N)ncnc21 [Compound 28, (1S,6R,8R,9R,10R,16R,18R,19R)-8,18-bis(6-amino-9H-purin-9-yl)-9,19-difluoro-3,13-dihydroxy-2,4,7,11,14,17-hexaoxa-3λ^5,13λ^5-diphosphatricyclo[14.2.1.0^6,^10]nonadecane-3,13-dione] | – | – | – | 9.3 | – | 6200 | 13.3 | – | – | – |
| CC(C)OC(=O)OCOP1(=O)CO[C@H]2[C@@H](F)[C@H](n3cnc4c(N)ncnc43)O[C@@H]2COP(=O)(OCOC(=O)OC(C)C)O[C@@H]2[C@H](F)[C@@H](CO1)O[C@H]2n1cnc2c(N)ncnc21 (stereo partly drawn) [Compound 80b, {[(1S,6R,8R,9R,10R,16R,18R,19R)-8,18-bis(6-amino-9H-purin-9-yl)-9,19-difluoro-3,13-dioxo-13-({[(propan-2-yloxy)carbonyl]oxy}methoxy)-2,4,7,11,14,17-hexaoxa-3λ^5,13λ^5-diphosphatricyclo[14.2.1.0^6,10]nonadecan-3-yl]oxy}methyl propan-2-yl carbonate] | 1300 | 1500 | – | – | – | 900 | – | – | – | 1600 |
